Where two headings read alike, the source gives them in different places.
Columns and labels:
[1] = test system: Capan-1 cells (K-Ras G12V); assay: CellTiter-Glo cell viability, Capan-1; format: cell-based, human; settings: K-Ras G12V, 5-day treatment, read-out: Capan-1 Cell Viability IC50
Outline: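 Viability read by luminescence on day 5 after direct compound addition to cells, following ~30 min room-temperature equilibration. Values expressed as percent of mean DMSO signal, curves fitted with a four-parameter logistic model.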

KRAS G12C = KRAS G12C (Homo sapiens (Human), UniProt P01116+P62937, G12C); assay: Ras-Raf disruption/FRET/MOA assay (BRAF RBD, Cyclophilin A); format: biochemical; settings: read-out: KRAS G12C FRET IC50
Experimental: (§1) Compound is present in plate wells as a 10-point 3-fold dilution series starting at a final concentration of 30 μM. After incubation at 25° C. for 3 hours, a mixture of Anti-His Eu—W1024 and anti-GST allophycocyanin is then added to assay sample wells at final concentrations of 10 nM and 50 nM, respectively, and the reaction incubated for an additional 1.5 hours. […] Compounds that facilitate disruption of a Ras: RAF complex are identified as those eliciting a decrease in the TR-FRET ratio relative to DMSO control wells.
(§2) Disruption of B-Raf Ras-Binding Domain (BRAF^RBD) Interaction with K-Ras by Compounds of the Invention (Also Called a FRET Assay or an MOA Assay)
(§3) Note—The following protocol describes a procedure for monitoring disruption of K-Ras G12C (GMP-PNP) binding to BRAF^RBD by a compound of the invention. This protocol may also be executed substituting other Ras proteins or nucleotides.
(§4) The purpose of this biochemical assay was to measure the ability of test compounds to facilitate ternary complex formation between a nucleotide-loaded K-Ras isoform and Cyclophilin A; the resulting ternary complex disrupts binding to a BRAF^RBD construct, inhibiting K-Ras signaling through a RAF effector. Data is reported as IC50 values.
(§5) In assay buffer containing 25 mM HEPES pH 7.3, 0.002% Tween20, 0.1% BSA, 100 mM NaCl and 5 mM MgCl2, tagless Cyclophilin A, His6-K-Ras-GMPPNP, and GST-BRAF^RBD were combined in a 384-well assay plate at final concentrations of 25 μM, 12.5 nM and 50 nM, respectively. Compound was present in plate wells as a 10-point 3-fold dilution series starting at a final concentration of 30 μM. After incubation at 25° C. for 3 hours, a mixture of Anti-His Eu—W1024 and anti-GST allophycocyanin was then added to assay sample wells at final concentrations of 10 nM and 50 nM, respectively, and the reaction incubated for an additional 1.5 hours. […] Compounds that facilitate disruption of a K-Ras: RAF complex were identified as those eliciting a decrease in the TR-FRET ratio relative to DMSO control wells.

KRAS WT = KRAS WT (Homo sapiens (Human), UniProt P01116+P62937); assay: as above; format: biochemical; settings: read-out: KRAS WT FRET data IC50
Experimental: as §1, §2, §3, §4, §5

KRAS G12S = KRAS G12S (Homo sapiens (Human), UniProt P01116+P62937, G12S); assay: as above; format: biochemical; settings: read-out: KRAS G12S FRET IC50
Experimental: as §1, §2, §3, §4, §5

KRAS G12D = KRAS G12D (Homo sapiens (Human), UniProt P01116+P62937, G12D); assay: as above; format: biochemical; settings: read-out: KRAS G12D FRET IC50
Experimental: as §1, §2, §3, §4, §5

KRAS G13C = KRAS G13C (Homo sapiens (Human), UniProt P01116+P62937, G13C); assay: as above; format: biochemical; settings: read-out: KRAS G13C FRET IC50
Experimental: as §1, §2, §3, §4, §5

NRAS G12C = NRAS G12C (Homo sapiens (Human), UniProt P01111+P62937, G12C); assay: as above; format: biochemical; settings: read-out: NRAS G12C FRET data IC50
Experimental: as §1, §2, §3, §4, §5

KRAS G12V = KRAS G12V (Homo sapiens (Human), UniProt P01116+P62937, G12V); assay: as above; format: biochemical; settings: read-out: KRAS G12V FRET IC50
Experimental: as §1, §2, §3, §4, §5

KRAS G13D = KRAS G13D (Homo sapiens (Human), UniProt P01116+P62937, G13D); assay: as above; format: biochemical; settings: read-out: KRAS G13D FRET data IC50
Experimental: as §1, §2, §3, §4, §5

KRAS G12S, sequence (P01116 other isoform, or with tags, fused parts or gaps G12S): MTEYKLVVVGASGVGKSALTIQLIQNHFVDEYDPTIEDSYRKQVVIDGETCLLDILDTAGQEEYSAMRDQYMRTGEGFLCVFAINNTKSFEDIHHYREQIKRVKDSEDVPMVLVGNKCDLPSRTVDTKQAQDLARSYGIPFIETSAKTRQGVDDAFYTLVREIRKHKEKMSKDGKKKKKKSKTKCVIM
KRAS G12S, sequence (P62937 whole entry): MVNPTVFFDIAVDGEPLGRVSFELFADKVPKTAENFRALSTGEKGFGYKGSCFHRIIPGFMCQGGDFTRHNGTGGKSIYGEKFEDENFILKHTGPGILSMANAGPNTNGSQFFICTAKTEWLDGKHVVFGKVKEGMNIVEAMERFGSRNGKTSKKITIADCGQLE
KRAS G12C, sequence (P01116-2 other isoform, or with tags, fused parts or gaps G12C): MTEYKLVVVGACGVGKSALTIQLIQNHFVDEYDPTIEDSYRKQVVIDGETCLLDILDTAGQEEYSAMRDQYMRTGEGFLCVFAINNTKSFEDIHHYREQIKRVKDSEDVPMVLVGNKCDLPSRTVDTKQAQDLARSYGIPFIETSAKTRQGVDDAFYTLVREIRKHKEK
KRAS G12C, sequence (P62937 whole entry): as the sequence (P62937 whole entry) above
KRAS G12V, sequence (P01116 other isoform, or with tags, fused parts or gaps G12V): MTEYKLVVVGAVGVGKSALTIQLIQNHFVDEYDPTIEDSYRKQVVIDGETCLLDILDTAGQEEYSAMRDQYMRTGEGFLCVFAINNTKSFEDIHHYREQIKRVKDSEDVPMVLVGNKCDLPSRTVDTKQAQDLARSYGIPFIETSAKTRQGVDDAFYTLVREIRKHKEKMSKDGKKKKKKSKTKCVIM
KRAS G12V, sequence (P62937 whole entry): as the sequence (P62937 whole entry) above
NRAS G12C, sequence (P01111 whole entry G12C): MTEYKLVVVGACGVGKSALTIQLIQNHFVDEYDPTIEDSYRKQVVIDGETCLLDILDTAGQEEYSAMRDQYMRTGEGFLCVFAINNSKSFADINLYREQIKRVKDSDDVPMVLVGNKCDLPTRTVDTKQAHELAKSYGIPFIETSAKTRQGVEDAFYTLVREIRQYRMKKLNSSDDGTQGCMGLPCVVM
NRAS G12C, sequence (P62937 whole entry): as the sequence (P62937 whole entry) above
KRAS WT, sequence (P01116 other isoform, or with tags, fused parts or gaps): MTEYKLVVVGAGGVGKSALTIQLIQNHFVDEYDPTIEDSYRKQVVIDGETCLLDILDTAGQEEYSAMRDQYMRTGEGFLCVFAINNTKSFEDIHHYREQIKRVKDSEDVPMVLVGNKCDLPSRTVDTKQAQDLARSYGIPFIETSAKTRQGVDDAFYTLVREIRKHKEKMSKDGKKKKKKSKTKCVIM
KRAS WT, sequence (P62937 whole entry): as the sequence (P62937 whole entry) above
KRAS G12D, sequence (P01116 other isoform, or with tags, fused parts or gaps G12D): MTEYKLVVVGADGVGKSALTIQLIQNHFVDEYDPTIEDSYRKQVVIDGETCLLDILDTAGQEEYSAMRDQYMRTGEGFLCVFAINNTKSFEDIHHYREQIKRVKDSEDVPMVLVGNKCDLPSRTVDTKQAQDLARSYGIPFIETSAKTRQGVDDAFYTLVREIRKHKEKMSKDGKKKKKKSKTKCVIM
KRAS G12D, sequence (P62937 whole entry): as the sequence (P62937 whole entry) above
KRAS G13C, sequence (P01116 other isoform, or with tags, fused parts or gaps G13C): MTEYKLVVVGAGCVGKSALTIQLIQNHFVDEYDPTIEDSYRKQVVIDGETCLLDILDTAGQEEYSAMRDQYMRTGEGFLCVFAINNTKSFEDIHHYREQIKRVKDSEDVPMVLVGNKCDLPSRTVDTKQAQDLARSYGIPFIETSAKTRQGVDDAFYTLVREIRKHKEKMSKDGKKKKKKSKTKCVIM
KRAS G13C, sequence (P62937 whole entry): as the sequence (P62937 whole entry) above
KRAS G13D, sequence (P01116 other isoform, or with tags, fused parts or gaps G13D): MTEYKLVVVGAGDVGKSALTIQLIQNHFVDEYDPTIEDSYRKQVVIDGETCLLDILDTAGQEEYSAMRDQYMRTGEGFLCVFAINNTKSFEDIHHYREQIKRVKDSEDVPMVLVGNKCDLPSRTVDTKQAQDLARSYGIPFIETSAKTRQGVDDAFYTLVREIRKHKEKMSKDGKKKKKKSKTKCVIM
KRAS G13D, sequence (P62937 whole entry): as the sequence (P62937 whole entry) above

| SMILES | IC50 ([1]; Homo sapiens, CAPAN-1, 120 h) | IC50 (KRAS G12C) | IC50 (KRAS WT) | IC50 (KRAS G12S) | IC50 (KRAS G12D) | IC50 (KRAS G13C) | IC50 (NRAS G12C) | IC50 (KRAS G12V) | IC50 (KRAS G13D) | IC50 [1] |
| --- | --- | --- | --- | --- | --- | --- | --- | --- | --- | --- |
| CCn1c(-c2cccnc2[C@H](C)OC)c2c3cc(ccc31)-c1cccc(c1)C[C@H](NC(=O)[C@H](C(C)C)N(C)C(=O)[C@@H]1CCN(C3COC3)C1)C(=O)N1CCC[C@H](N1)C(=O)OCC(C)(C)C2 [Compound A206] | > 10000 nM | 1000 to 10000 nM | 1000 to 10000 nM | > 10000 nM | > 10000 nM | 1000 to 10000 nM | 1000 to 10000 nM | > 10000 nM | 1000 to 10000 nM | – |
| CCn1c(-c2cccnc2[C@H](C)OC)c2c3cc(ccc31)-c1csc(n1)C[C@H](NC(=O)[C@H](C(C)C)N1CCC3(CCN(C)C3)C1=O)C(=O)N1CCC[C@H](N1)C(=O)OCC(C)(C)C2 (stereo partly drawn) [Compound A213] | > 10000 nM | 1000 to 10000 nM | 1000 to 10000 nM | 1000 to 10000 nM | 1000 to 10000 nM | 1000 to 10000 nM | 1000 to 10000 nM | > 10000 nM | 1000 to 10000 nM | – |
| CCn1c(-c2cccnc2[C@H](C)OC)c2c3cc(ccc31)-c1cc(O)cc(c1)C[C@H](NC(=O)[C@H](C(C)C)N(C)C(=O)[C@@H]1NC[C@@H]3C[C@@H]31)C(=O)N1CCC[C@H](N1)C(=O)OCC(C)(C)C2 [Compound A217] | 100 to 1000 nM | 10 to 100 nM | 10 to 100 nM | 10 to 100 nM | 100 to 1000 nM | 10 to 100 nM | 10 to 100 nM | 100 to 1000 nM | 10 to 100 nM | – |
| CCn1c(-c2cccnc2[C@H](C)OC)c2c3cc(ccc31)-c1cc(O)cc(c1)C[C@H](NC(=O)[C@H](C(C)C)N(C)C(=O)C1CCCC1)C(=O)N1CCC[C@H](N1)C(=O)OCC(C)(C)C2 [Compound A219] | 100 to 1000 nM | 10 to 100 nM | 10 to 100 nM | 10 to 100 nM | 100 to 1000 nM | 10 to 100 nM | 10 to 100 nM | 10 to 100 nM | 100 to 1000 nM | – |
| CCn1c(-c2cccnc2[C@H](C)OC)c2c3cc(ccc31)-c1cc(O)cc(c1)C[C@H](NC(=O)[C@H](C(C)C)N(C)C(=O)C1CNCCO1)C(=O)N1CCC[C@H](N1)C(=O)OCC(C)(C)C2 (stereo partly drawn) [Compound A229] | 1000 to 10000 nM | 10 to 100 nM | 100 to 1000 nM | 100 to 1000 nM | 100 to 1000 nM | 10 to 100 nM | 10 to 100 nM | 100 to 1000 nM | 10 to 100 nM | – |
| CCn1c(-c2cccnc2[C@H](C)OC)c2c3cc(ccc31)-c1cc(O)cc(c1)C[C@H](NC(=O)[C@H](C(C)C)N(C)C(=O)[C@H]1CNC[C@@H]1C)C(=O)N1CCC[C@H](N1)C(=O)OCC(C)(C)C2 [Compound A251] | > 10000 nM | 100 to 1000 nM | 100 to 1000 nM | 100 to 1000 nM | 100 to 1000 nM | 10 to 100 nM | 100 to 1000 nM | 100 to 1000 nM | 10 to 100 nM | – |
| CCn1c(-c2cccnc2[C@H](C)OC)c2c3cc(ccc31)-c1csc(n1)C[C@H](NC(=O)[C@H](C(C)C)N(C)C(=O)N1CC(C3COC3)C1)C(=O)N1CCC[C@H](N1)C(=O)OCC(C)(C)C2 [Compound A298] | 10 to 100 nM | 10 to 100 nM | 10 to 100 nM | 100 to 1000 nM | 100 to 1000 nM | 100 to 1000 nM | 10 to 100 nM | 100 to 1000 nM | 100 to 1000 nM | – |
| CO[C@@H](C)c1ncccc1-c1c2c3cc(ccc3n1CC(F)(F)F)-c1csc(n1)C[C@H](NC(=O)[C@H](C(C)C)N(C)C(=O)N1CC(N(C)C)C1)C(=O)N1CCC[C@H](N1)C(=O)OCC(C)(C)C2 [Compound A303] | – | 10 to 100 nM | 100 to 1000 nM | 100 to 1000 nM | 100 to 1000 nM | 100 to 1000 nM | 10 to 100 nM | 100 to 1000 nM | 100 to 1000 nM | 10 to 100 nM |
| CCn1c(-c2cccnc2[C@H](C)OC)c2c3cc(ccc31)-c1cc(O)cc(c1)C[C@H](NC(=O)[C@H](C(C)C)N1CNCC1=O)C(=O)N1CCC[C@H](N1)C(=O)OCC(C)(C)C2 [Compound A345] | 1000 to 10000 nM | 100 to 1000 nM | 100 to 1000 nM | 1000 to 10000 nM | 1000 to 10000 nM | 100 to 1000 nM | 100 to 1000 nM | 100 to 1000 nM | 100 to 1000 nM | – |

Source: patent US20250195521A1 (Revolution Medicines, Inc., priority 2020, published 2025)
